The subject of this assay is P. falciparum 3D7 growth, pLDH absorbance. As to the kind of experiment: P. falciparum 3D7 growth inhibition, dose response, strain 3D7 (AID 2305).

As usually defined, the IC50 is the concentration that inhibits the measured activity by half. Low values mean inhibition by little substance, high ones a need for much substance. For the compound `Clc1cnc2ccc3c(c2c1CCN1CCC(NCc2cc4c(cn2)OCCO4)CC1)OCCO3`, the IC50 amounted to 720 nM.

`O=C(/C=C/c1ccc(Cl)c(Cl)c1)N1CCN(C(=O)Nc2ccc(F)c(Cl)c2)CC1` returned a half-inhibitory concentration (IC50) of 720 nM. In turn, `COc1ccc(C(=O)CCC(=O)N(CCSC(C)(C)C)Cc2ccc(-c3ccc(CNCCc4ccc(S(C)(=O)=O)cc4)cn3)cc2)cc1F` showed an IC50 of 630 nM.

Compound `COc1ccc2nccc([C@@H](O)CN3CCC(NCc4nc5ccccc5s4)CC3)c2c1` registered an IC50 of 930 nM. The compound `COc1ccc(F)cc1-c1ccc(C(=O)N2CCCN(c3ccc(C(F)(F)F)cn3)CC2)cc1` returned an IC50 of 160 nM. The compound `COc1cccc(CNC(=O)c2cnc(N3CCN(c4ccncc4)CC3)c(Cl)c2)c1` had an IC50 of 1150 nM. Against the preceding compound, the IC50 is about 7.2-fold higher. In turn, `O=C(Nc1ccc(-c2nc3ccccc3[nH]2)cc1)c1cnc(Cl)c(Cl)c1` came in with an IC50 of 730 nM.

In turn, `Cc1ccc(C(=O)Nc2ccc(F)cc2)cc1-c1nc(NC2CC(C)(C)NC(C)(C)C2)nc2c1ccc(=O)n2-c1c(F)cccc1F` returned an IC50 of 680 nM.

In turn, `CCCc1cc(=O)oc2cc(OC)c(C(=O)CC(C)C)c(OC)c12` gave an IC50 of 1010 nM. This IC50 and that of the compound before are within 1.5-fold of each other.

Compound `COCCNc1nc(N2CCC(CNC(=O)c3ccc(-c4ccc(C(=O)N(C)C)cc4C)cc3)CC2)nc2cc(OC)c(OC)cc12` displayed an IC50 of 1020 nM. This IC50 and that of the compound before are within 1.5-fold of each other.

Compound `COc1ccc(O)c(C(=O)c2cc(C(=O)NCCc3ccccc3)c(=O)n(CCc3ccccc3)c2)c1` had an IC50 of 1010 nM. `Cc1cc(N[C@@H](Cc2ccccc2)C(=O)NCc2cccs2)nc(NCC2CCCCC2)n1`: the IC50 was 990 nM. This IC50 and that of the compound before are within 1.5-fold of each other. To `Cc1ccc2c(c1)c(C1CCN(C(=O)c3ccc([N+](=O)[O-])o3)CC1)cn2C` belongs 750 nM; to `Cc1ccc(NC(=S)NC2CCN(CCCCCNC(=O)/C=C/c3ccc(Cl)c(Cl)c3)CC2)cc1Cl`, 990 nM.

Consider `Cc1nc(C)c(CC(=O)Nc2ccc(-c3ccc(-c4nc5ccc(C(F)(F)F)cc5[nH]4)s3)cc2)s1`, for which the IC50 worked out at 1030 nM.

The compound `O=C(NCC1CCC(CNCCCc2ccccc2)CC1)c1cc(Cl)cc(Cl)c1` (centres undefined) showed an IC50 of 850 nM. Regarding `Cn1ccnc1-c1nc2ccccn2c1NCC(=O)Nc1ccccc1N1CCCCC1`, the IC50 turned out to be 980 nM. The IC50 values of the last two compounds are within 1.5-fold of each other. To `Cc1c(Cc2ccccc2)c(=O)oc2c(C)c3c(cc12)CN(CC(C)c1ccccc1)CO3` (centres undefined) belongs 450 nM; to `N#Cc1ccccc1C1CCN(C2CCC(Nc3cc(-c4cccnc4)ccn3)CC2)CC1` (centres undefined), 960 nM; to `CO[C@@H]1C[C@@H](C(=O)Nc2ccccc2)N(c2ccc(C#N)c3ccccc23)C1`, 910 nM. `COc1cc(Cc2c(C)nc3nc(N)nc(N)c3c2C)c(Br)c(OC)c1OC`: the IC50 is 400 nM. Regarding `Cc1cc(Nc2cccc(C#N)c2)nc(Nc2ccccc2C)n1`, the IC50 was 860 nM. Compound `COc1ccc(-c2ccc(NC(=O)c3ccc(Cl)cc3)cc2)cc1CN1CCC(O)CC1` yielded an IC50 of 1090 nM. In the case of `CCN(CC)CCCNCc1ccc(-c2ccc(C(F)(F)F)cc2)cc1`, the IC50 was determined as 990 nM.

`CC1CCC2(CC1)N=C(N)N=C(N)N2OCc1cc2ccccc2c2ccccc12` (centres undefined) gave a 50% inhibitory concentration (IC50) of 240 nM. For `COc1ccc(Cl)cc1S(=O)(=O)Nc1cccc(CCN2CCC(N3CCCCC3)CC2)c1`, the 50% inhibitory concentration (IC50) is 700 nM.

Regarding `O=c1cc(N2CCNCC2)c(Cl)nn1Cc1ccc(NS(=O)(=O)c2ccc(Oc3ccccc3)cc2)cc1`, the IC50 came out at 570 nM. The IC50 values of the last two compounds are within 1.5-fold of each other.

The compound `CC1CCN(CC[C@H]2CCCN2S(=O)(=O)c2cccc(NC(=O)Nc3ccc(C(F)(F)F)cc3)c2)CC1` gave an IC50 of 720 nM. The IC50 values of the last two compounds are within 1.5-fold of each other. Compound `O=C(Nc1cccc(-c2ccc(-c3nc4ccc(C(F)(F)F)cc4[nH]3)cc2)c1)c1cccnc1` had an IC50 of 570 nM. For the compound `Cc1nc(N)nc(N)c1-c1ccc(Cl)c(Cl)c1`, the IC50 came out at 80 nM. Next, `Cc1ccc2nc3sc(C(=O)NCCCN4CCC(N5CCCCC5)CC4)cc3cc2c1`: 670 nM; `CC(C)C[C@H](NC(=O)c1ccc(OCCN2CCOCC2)cc1)C(=O)N[C@H](/C=N/N1CCNC1=O)CCc1ccccc1`: 370 nM; `Cc1cccc(NC(=O)NCc2ccccc2)n1`: 940 nM. As for `Cc1cc(O)cc2c(C3CCN(CC4CCC(NC(=O)/C=C/c5ccccc5Cl)CC4)CC3)c[nH]c12` (centres undefined), the IC50 is 900 nM. The IC50 values of the last two compounds are within 1.5-fold of each other. On to `COc1cc2ncnc(NCCc3ccccc3Cl)c2cc1OC`, for which the IC50 is 1120 nM. To `O=S(=O)(c1ccc(OCc2ccc(Cl)cc2)cc1)c1cc2c(c(-c3ccc(F)cc3)c1)CCN(CC1CC1)CC2` belongs 1120 nM; to `COc1cc2nc(N3CCC(CNC(=O)c4ccc(C(C)=O)cc4)CC3)nc(N)c2cc1OC`, 1120 nM; to `Cc1cc(Nc2ccc(Cl)cc2)n2nc(C(F)(F)F)nc2n1`, 120 nM. `COC(=O)c1ccc(CC(C)NCC(O)c2cccc(C(F)(F)F)c2)cc1C` (centres undefined): the IC50 was 970 nM. `COc1ccc(NC(=O)[C@H](Cc2ccccc2)Nc2cc(C)nc(Nc3ccccc3)n2)cc1` showed an IC50 of 1010 nM. In turn, `COc1cc(Cc2cnc(N)nc2N)ccc1OCc1cccc(Oc2ccccc2)c1` registered an IC50 of 1330 nM. As to `Cc1nc2nc(N)nc(N)c2c(C)c1Cc1ccc(C(F)(F)F)cc1`, the IC50 was determined as 750 nM. This IC50 is about 1.8-fold lower than that of the compound before.

Turning to `CC(C)Oc1ccc2c(c1)OC(c1ccccc1)(C(F)(F)F)NC2=O` (centres undefined), the IC50 was 140 nM. Compared with the last compound, the IC50 is about 5.4-fold lower.

`O=C(N[C@@H](Cc1ccccc1)CN1CCC(Oc2ccc(F)cc2)CC1)c1ccc(OCCCN2CCCCC2)cc1`: the IC50 was found to be 890 nM. This IC50 is about 6.4-fold higher than that of the compound before.

Values taken from PubChem BioAssay AID2305 (GlaxoSmithKline (GSK), 2010).
